Entries after “also recorded” stand apart in the source; their conditions may differ.
How the values were obtained:
[1] = complexation of lead on ion-loaded thin layer chromatography plates (1/Rf); format: binding; settings: Polygram Ionex 25-SA-Na plates loaded with Pb^2+, developed four times in water; FIG. 4
Source text: (§1) To evaluate the complexation, ion-loaded thin layer chromatography plates which allow rapid evaluation of the complexation of these ions by the species to be evaluated are used. In the present case, plates of Polygram Ionex 25-SA-Na type (Macherey-Nagel, ref: 80613) loaded with various counterions were used. In each test, the compound to be tested is introduced onto the plate, and if the compound complexes the ions, they will be retained on the plate. The plates are then developed four times in water, because of the small amount of migration of the cyclodextrin derivatives, and then the degree of complexation is determined through the value 1/Rf, where Rf represents the ratio: (distance covered by the cyclodextrin derivative/distance covered by the solvent).
(§2) Measurements of degree of complexation of lead (in the form Pb^2+) and of erbium in the form (Er^3+) were carried out for the following three compounds: • the base cyclodextrin mono-2-O-carboxyméthyle-per-(3,6-anhydro)cyclomaltohexaose (designated (1) in FIG. 4); • a cyclodextrin in accordance with the invention, prepared in the context of Example 1 (denoted (2) in FIG. 4); • a cyclodextrin in accordance with the invention, prepared in the context of Example 2 (denoted (3) in FIG. 4).

[2] = complexation of erbium on ion-loaded thin layer chromatography plates (1/Rf); format: binding; settings: Polygram Ionex 25-SA-Na plates loaded with Er^3+, developed four times in water; FIG. 4
Source text: as §1, §2

Substance | lead-complexation properties (degree of complexation, 1/Rf) [1] | erbium-complexation properties (degree of complexation, 1/Rf) [2]
[(mono-2-O-methyl(mono-ε-amidopoly-L-Lysine)]-per-(3,6-anhydro)-α-cyclodextrin [Example 2] | particularly advantageous | particularly advantageous; also recorded: complex erbium
mono-2-O-carboxymethyl-per-(3,6-anhydro)cyclomaltohexaose [noncoupled per(3,6-anhydro)cyclodextrin, reference compound] |  | does not complex erbium
